Experimental data published in publication PMC5218480 (PLoS ONE, 2017).

Test system: MV-4-11 cells
Assay: Gene expression microarray analysis (Affymetrix PrimeView) and GSEA
Assay type: cell-based, human
Parameters: RFU PODN (11730768_x_at) / Fold change /veh PODN (11730768_x_at) / RFU LINC00158 (11744669_a_at) / Fold change /veh LINC00158 (11744669_a_at) / RFU DUSP10 (11751237_a_at) / Fold change /veh DUSP10 (11751237_a_at) / RFU ID3 (11757404_x_at) / Fold change /veh ID3 (11757404_x_at) / RFU PLEKHG5 (11737974_s_at) / Fold change /veh PLEKHG5 (11737974_s_at) / RFU LRRC4B (11730491_at) / Fold change /veh LRRC4B (11730491_at) / RFU GIMAP4 (11747438_a_at) / Fold change /veh GIMAP4 (11747438_a_at) / RFU KRT8 (11758183_x_at) / Fold change /veh KRT8 (11758183_x_at) / RFU CNN1 (11734310_a_at) / Fold change /veh CNN1 (11734310_a_at) / RFU VPS37D (11726825_at) / Fold change /veh VPS37D (11726825_at) / RFU C10orf10 (11716522_x_at) / Fold change /veh C10orf10 (11716522_x_at) / RFU KIR2DL2 /// KIR2DL4 /// KIR2DL5A /// KIR2DL5B /// KIR2DS1 /// KIR2DS2 /// KIR2DS3 /// KIR2DS4 /// KIR3DL3 /// KIR3DL3 /// KIR3DS1 (11738374_at) / Fold change /veh KIR2DL2 /// KIR2DL4 /// KIR2DL5A /// KIR2DL5B /// KIR2DS1 /// KIR2DS2 /// KIR2DS3 /// KIR2DS4 /// KIR3DL3 /// KIR3DL3 /// KIR3DS1 (11738374_at) / RFU C1QL1 (11718748_at) / Fold change /veh C1QL1 (11718748_at) / RFU TMPRSS4 (11747572_a_at) / Fold change /veh TMPRSS4 (11747572_a_at) / RFU HAMP (11756126_x_at) / Fold change /veh HAMP (11756126_x_at) / RFU RNFT2 (11725882_a_at) / Fold change /veh RNFT2 (11725882_a_at) / RFU NR4A2 (11747474_a_at) / Fold change /veh NR4A2 (11747474_a_at) / RFU ABCC12 (11746883_a_at) / Fold change /veh ABCC12 (11746883_a_at) / RFU TMEM136 (11760407_x_at) / Fold change /veh TMEM136 (11760407_x_at) / RFU CLDN22 /// WWC2 (11732394_at) / Fold change /veh CLDN22 /// WWC2 (11732394_at) / RFU HLA-DPB1 (11760878_x_at) / Fold change /veh HLA-DPB1 (11760878_x_at) / RFU SPINT1 (11716480_a_at) / Fold change /veh SPINT1 (11716480_a_at) / RFU GAP43 (11754022_s_at) / Fold change /veh GAP43 (11754022_s_at) / RFU A4GNT (11735810_at) / Fold change /veh A4GNT (11735810_at) / RFU PRB3 (11715151_x_at) / Fold change /veh PRB3 (11715151_x_at) / RFU TUBB4B (11761932_at) / Fold change /veh TUBB4B (11761932_at) / RFU CAPN14 (11732068_a_at) / Fold change /veh CAPN14 (11732068_a_at) / RFU TMCC2 (11721928_a_at) / Fold change /veh TMCC2 (11721928_a_at) / RFU IRGQ (11745062_a_at) / Fold change /veh IRGQ (11745062_a_at) / RFU FAM174B (11720279_a_at) / Fold change /veh FAM174B (11720279_a_at) / RFU TMPRSS4 (11748680_a_at) / Fold change /veh TMPRSS4 (11748680_a_at) / RFU FAM212B (11763350_a_at) / Fold change /veh FAM212B (11763350_a_at) / RFU PLEKHG5 (11743358_a_at) / Fold change /veh PLEKHG5 (11743358_a_at) / RFU ZSCAN30 (11745921_a_at) / Fold change /veh ZSCAN30 (11745921_a_at) / RFU CMKLR1 (11741424_a_at) / Fold change /veh CMKLR1 (11741424_a_at) / RFU LOC101060620 /// MAPK8IP1 (11723275_at) / Fold change /veh LOC101060620 /// MAPK8IP1 (11723275_at) / RFU SPTSSB (11747773_x_at) / Fold change /veh SPTSSB (11747773_x_at) / RFU PRSS12 (11739890_at) / Fold change /veh PRSS12 (11739890_at) / RFU BIN1 (11741810_x_at) / Fold change /veh BIN1 (11741810_x_at) / RFU WNT11 (11732464_a_at) / Fold change /veh WNT11 (11732464_a_at) / RFU C10orf10 (11716521_a_at) / Fold change /veh C10orf10 (11716521_a_at) / RFU C5orf56 (11738089_at) / Fold change /veh C5orf56 (11738089_at) / RFU CYB561 (11721691_x_at) / Fold change /veh CYB561 (11721691_x_at) / RFU ANKRD19P (11752326_a_at) / Fold change /veh ANKRD19P (11752326_a_at) / RFU OR2T12 /// OR2T33 /// OR2T8 (11738714_s_at) / Fold change /veh OR2T12 /// OR2T33 /// OR2T8 (11738714_s_at) / RFU VCAN (11748164_a_at) / Fold change /veh VCAN (11748164_a_at) / RFU JSRP1 (11732532_at) / Fold change /veh JSRP1 (11732532_at) / RFU KRTAP10-11 (11738290_x_at) / Fold change /veh KRTAP10-11 (11738290_x_at) / RFU MYO3A (11730013_a_at) / Fold change /veh MYO3A (11730013_a_at) / RFU EBF3 (11725865_a_at) / Fold change /veh EBF3 (11725865_a_at) / RFU CAMK2N1 (11719241_x_at) / Fold change /veh CAMK2N1 (11719241_x_at) / RFU C5orf56 (11738088_a_at) / Fold change /veh C5orf56 (11738088_a_at) / RFU OLFML3 (11715873_a_at) / Fold change /veh OLFML3 (11715873_a_at) / RFU LOC100653217 /// NTM (11731650_a_at) / Fold change /veh LOC100653217 /// NTM (11731650_a_at) / RFU MAPK11 (11762145_a_at) / Fold change /veh MAPK11 (11762145_a_at) / RFU FIZ1 (11724087_x_at) / Fold change /veh FIZ1 (11724087_x_at) / RFU OASL (11726364_x_at) / Fold change /veh OASL (11726364_x_at) / RFU SOX15 (11748057_x_at) / Fold change /veh SOX15 (11748057_x_at) / RFU CD79A (11719716_a_at) / Fold change /veh CD79A (11719716_a_at) / RFU HIST1H1D (11736915_at) / Fold change /veh HIST1H1D (11736915_at) / RFU CASKIN2 (11723855_a_at) / Fold change /veh CASKIN2 (11723855_a_at) / RFU LOC730098 (11760151_x_at) / Fold change /veh LOC730098 (11760151_x_at) / RFU OR4N2 (11742367_at) / Fold change /veh OR4N2 (11742367_at) / RFU PRRT2 (11749266_a_at) / Fold change /veh PRRT2 (11749266_a_at) / RFU SNX32 (11753110_a_at) / Fold change /veh SNX32 (11753110_a_at) / RFU CDHR5 (11726645_a_at) / Fold change /veh CDHR5 (11726645_a_at) / RFU RCAN1 (11760418_a_at) / Fold change /veh RCAN1 (11760418_a_at) / RFU FAM167A (11723789_a_at) / Fold change /veh FAM167A (11723789_a_at) / RFU FAM26E (11764081_at) / Fold change /veh FAM26E (11764081_at) / RFU ISYNA1 (11749810_s_at) / Fold change /veh ISYNA1 (11749810_s_at) / RFU ACY1 (11761880_at) / Fold change /veh ACY1 (11761880_at) / RFU 11764098_at / Fold change /veh 11764098_at / RFU SAMD14 (11745864_x_at) / Fold change /veh SAMD14 (11745864_x_at) / RFU NPB (11741838_a_at) / Fold change /veh NPB (11741838_a_at) / RFU TMPRSS6 (11731388_a_at) / Fold change /veh TMPRSS6 (11731388_a_at) / RFU KRTAP10-2 (11738614_at) / Fold change /veh KRTAP10-2 (11738614_at) / RFU ARHGAP8 /// PRR5-ARHGAP8 (11727945_x_at) / Fold change /veh ARHGAP8 /// PRR5-ARHGAP8 (11727945_x_at) / RFU KRTAP5-7 /// NADSYN1 (11734609_at) / Fold change /veh KRTAP5-7 /// NADSYN1 (11734609_at) / RFU RASL12 (11751679_a_at) / Fold change /veh RASL12 (11751679_a_at) / RFU CDKN2B (11736163_a_at) / Fold change /veh CDKN2B (11736163_a_at) / RFU PRF1 (11729649_at) / Fold change /veh PRF1 (11729649_at) / RFU, ZNF638 /// ZNF638-IT1 / Fold change vs veh, ZNF638 /// ZNF638-IT1 / RFU, PANK3 / Fold change vs veh, PANK3 / RFU, SH3YL1 / Fold change vs veh, SH3YL1 / RFU, ZEB2 / Fold change vs veh, ZEB2 / RFU, NRIP1 / Fold change vs veh, NRIP1 / RFU, PTTG1IP / Fold change vs veh, PTTG1IP / RFU, CAPN2 / Fold change vs veh, CAPN2 / RFU, MED14 / Fold change vs veh, MED14 / RFU, SNORA58 / Fold change vs veh, SNORA58 / RFU, C1orf63 / Fold change vs veh, C1orf63 / RFU, LRRFIP1 / Fold change vs veh, LRRFIP1 / RFU, NDUFAF7 / Fold change vs veh, NDUFAF7 / RFU, SLC12A2 / Fold change vs veh, SLC12A2 / RFU, IBTK / Fold change vs veh, IBTK / RFU, ESF1 / Fold change vs veh, ESF1 / Fold change vs veh, TMEM50B / RFU, TAOK1 / Fold change vs veh, TAOK1 / RFU, ACBD3 / Fold change vs veh, ACBD3 / RFU, TMA16 / Fold change vs veh, TMA16 / RFU, RWDD3 / Fold change vs veh, RWDD3 / RFU, BCAT1 / Fold change vs veh, BCAT1 / RFU, EDEM3 / Fold change vs veh, EDEM3 / RFU, TMEM33 / Fold change vs veh, TMEM33 / RFU, WDR75 / Fold change vs veh, WDR75 / RFU, AHCTF1 / Fold change vs veh, AHCTF1 / RFU, TFRC / Fold change vs veh, TFRC / RFU, ZDHHC17 / Fold change vs veh, ZDHHC17 / RFU, NOM1 / Fold change vs veh, NOM1 / RFU, ARL8B / Fold change vs veh, ARL8B / RFU, ZBTB11 / Fold change vs veh, ZBTB11 / RFU, TAMM41 / Fold change vs veh, TAMM41 / RFU, KIAA1704 /// LOC100996395 / Fold change vs veh, KIAA1704 /// LOC100996395 / RFU, ING1 / Fold change vs veh, ING1 / RFU, TRMT61B / Fold change vs veh, TRMT61B / RFU, FUBP3 / Fold change vs veh, FUBP3 / RFU, TP53 / Fold change vs veh, TP53 / RFU, TNKS2 / Fold change vs veh, TNKS2 / RFU, ZFP14 / Fold change vs veh, ZFP14 / RFU, ACTR2 / Fold change vs veh, ACTR2 / RFU, PPP3R1 / Fold change vs veh, PPP3R1 / RFU, PIK3R1 / Fold change vs veh, PIK3R1 / RFU, HNRNPA1 / Fold change vs veh, HNRNPA1 / RFU, RNF170 / Fold change vs veh, RNF170 / RFU, ZNF28 / Fold change vs veh, ZNF28 / RFU, RNGTT / Fold change vs veh, RNGTT / RFU, OGT / Fold change vs veh, OGT / RFU, BRD1 / Fold change vs veh, BRD1 / RFU, MARS / Fold change vs veh, MARS / RFU, ZNF655 / Fold change vs veh, ZNF655 / RFU, FAHD1 / Fold change vs veh, FAHD1 / RFU, BDP1 / Fold change vs veh, BDP1 / RFU, LRRCC1 / Fold change vs veh, LRRCC1 / RFU, ARID1A / Fold change vs veh, ARID1A / RFU, ZNF146 / Fold change vs veh, ZNF146 / RFU, ZNF330 / Fold change vs veh, ZNF330 / RFU, GPN3 / Fold change vs veh, GPN3 / RFU, C9orf123 / Fold change vs veh, C9orf123 / RFU, N4BP2L2 / Fold change vs veh, N4BP2L2 / RFU, ARFIP1 / Fold change vs veh, ARFIP1 / RFU, FAM179B / Fold change vs veh, FAM179B / RFU, BCL10 / Fold change vs veh, BCL10 / RFU, UHRF1BP1L / Fold change vs veh, UHRF1BP1L / RFU, BET1 / Fold change vs veh, BET1 / RFU, CNOT2 / Fold change vs veh, CNOT2 / RFU, ZNF268 / Fold change vs veh, ZNF268 / Fold change vs veh, ZNF507 / RFU, DGCR2 / Fold change vs veh, DGCR2 / RFU, WDSUB1 / Fold change vs veh, WDSUB1 / Fold change vs veh, HSP90B1 /// MIR3652 / RFU, ADSS / Fold change vs veh, ADSS / RFU, GK / Fold change vs veh, GK / RFU, ZNF148 / Fold change vs veh, ZNF148 / RFU, TAF9 / Fold change vs veh, TAF9 / RFU, SLC1A5 / Fold change vs veh, SLC1A5 / RFU, SLMO2 / Fold change vs veh, SLMO2 / RFU, ABCC4 / Fold change vs veh, ABCC4 / RFU, LOC101060439 /// RAP1B / Fold change vs veh, LOC101060439 /// RAP1B / RFU, RFX7 / Fold change vs veh, RFX7 / RFU, GTPBP10 / Fold change vs veh, GTPBP10 / RFU, CNEP1R1 / Fold change vs veh, CNEP1R1 / RFU, BIVM-ERCC5 /// ERCC5 / Fold change vs veh, BIVM-ERCC5 /// ERCC5 / RFU, ILF3 / Fold change vs veh, ILF3 / RFU 11762660_at / Fold change /veh 11762660_at / RFU VCAN (11757783_s_at) / Fold change /veh VCAN (11757783_s_at) / RFU DDX43 (11728927_at) / Fold change /veh DDX43 (11728927_at) / RFU KRT8 (11758188_x_at) / Fold change /veh KRT8 (11758188_x_at) / RFU NKD1 (11759106_at) / Fold change /veh NKD1 (11759106_at) / RFU SRD5A1 (11742802_a_at) / Fold change /veh SRD5A1 (11742802_a_at) / RFU TPSAB1 /// TPSB2 (11721975_s_at) / Fold change /veh TPSAB1 /// TPSB2 (11721975_s_at) / RFU GSTM3 (11746129_a_at) / Fold change /veh GSTM3 (11746129_a_at) / RFU IL23R (11737362_x_at) / Fold change /veh IL23R (11737362_x_at) / RFU TMEM51 (11727254_a_at) / Fold change /veh TMEM51 (11727254_a_at) / RFU PIWIL2 (11732686_x_at) / Fold change /veh PIWIL2 (11732686_x_at) / RFU ORM1 (11744905_x_at) / Fold change /veh ORM1 (11744905_x_at) / RFU CCDC152 (11743942_at) / Fold change /veh CCDC152 (11743942_at) / RFU ECM1 (11717891_a_at) / Fold change /veh ECM1 (11717891_a_at) / RFU IL23R (11748794_a_at) / Fold change /veh IL23R (11748794_a_at) / RFU TNFAIP8L3 (11732012_x_at) / Fold change /veh TNFAIP8L3 (11732012_x_at) / RFU MBOAT4 (11741988_at) / Fold change /veh MBOAT4 (11741988_at) / RFU 11764193_at / Fold change /veh 11764193_at / RFU TMEM53 (11763286_at) / Fold change /veh TMEM53 (11763286_at) / RFU MAGEB2 (11727129_at) / Fold change /veh MAGEB2 (11727129_at) / RFU TMEM200A (11744735_a_at) / Fold change /veh TMEM200A (11744735_a_at) / RFU CCDC152 (11751479_a_at) / Fold change /veh CCDC152 (11751479_a_at) / RFU FAM211A (11726209_a_at) / Fold change /veh FAM211A (11726209_a_at) / RFU RGS16 (11746705_a_at) / Fold change /veh RGS16 (11746705_a_at) / RFU VCAN (11755009_s_at) / Fold change /veh VCAN (11755009_s_at) / RFU RHOB (11743442_s_at) / Fold change /veh RHOB (11743442_s_at) / RFU RGS16 (11720943_a_at) / Fold change /veh RGS16 (11720943_a_at) / RFU RGS16 (11720944_at) / Fold change /veh RGS16 (11720944_at) / RFU, VPS4B / Fold change vs veh, VPS4B / RFU, CREB1 / Fold change vs veh, CREB1 / RFU, DNAJC13 / Fold change vs veh, DNAJC13 / RFU, GNAQ / Fold change vs veh, GNAQ / RFU, CDK5R1 / Fold change vs veh, CDK5R1 / RFU, ZRANB3 / Fold change vs veh, ZRANB3 / RFU, CUL4A / Fold change vs veh, CUL4A / RFU, CCNY / Fold change vs veh, CCNY / RFU, UFL1 / Fold change vs veh, UFL1 / RFU, COG3 / Fold change vs veh, COG3 / RFU, DIAPH2 / Fold change vs veh, DIAPH2 / RFU, SKA2 / Fold change vs veh, SKA2 / RFU, AFF3 / Fold change vs veh, AFF3 / RFU, LMF1 / Fold change vs veh, LMF1 / RFU, IPO11 / Fold change vs veh, IPO11 / RFU, DFFB / Fold change vs veh, DFFB / RFU, FOXP1 / Fold change vs veh, FOXP1 / RFU, CARD8 / Fold change vs veh, CARD8 / RFU, STRN3 / Fold change vs veh, STRN3 / RFU, ADK / Fold change vs veh, ADK / RFU, RASSF2 / Fold change vs veh, RASSF2 / RFU, WIPF1 / Fold change vs veh, WIPF1 / RFU, LARP1B / Fold change vs veh, LARP1B / RFU, RASA1 / Fold change vs veh, RASA1 / RFU, RB1 / Fold change vs veh, RB1 / RFU, PPFIA1 / Fold change vs veh, PPFIA1 / RFU, MAT2A / Fold change vs veh, MAT2A / RFU, CCT5 / Fold change vs veh, CCT5 / RFU, WDR92 / Fold change vs veh, WDR92 / RFU, CUX1 / Fold change vs veh, CUX1 / RFU, TTC7A / Fold change vs veh, TTC7A / RFU, TMEM135 / Fold change vs veh, TMEM135 / RFU, DEPTOR / Fold change vs veh, DEPTOR / RFU, CPM / Fold change vs veh, CPM / RFU, DNAJB6 / Fold change vs veh, DNAJB6 / RFU, CACNA2D3 / Fold change vs veh, CACNA2D3 / RFU, DTX4 / Fold change vs veh, DTX4 / RFU, TFCP2 / Fold change vs veh, TFCP2 / RFU, GMCL1 /// GMCL1P1 / Fold change vs veh, GMCL1 /// GMCL1P1 / RFU, AEBP2 / Fold change vs veh, AEBP2 / RFU, SNHG1 /// SNORD22 /// SNORD25 /// SNORD26 /// SNORD27 /// SNORD28 /// SNORD29 /// SNORD31 / Fold change vs veh, SNHG1 /// SNORD22 /// SNORD25 /// SNORD26 /// SNORD27 /// SNORD28 /// SNORD29 /// SNORD31 / Fold change (Aza/veh), C12orf56 (ProbeSet 11735607_a_at) / Fold change (ACY-1035/veh), C12orf56 (ProbeSet 11735607_a_at) / Fold change (Aza/veh), FGFR1OP (ProbeSet 11751329_s_at) / Fold change (ACY-1035/veh), FGFR1OP (ProbeSet 11751329_s_at) / Fold change (Aza/veh), VPS36 (ProbeSet 11739960_a_at) / Fold change (ACY-1035/veh), VPS36 (ProbeSet 11739960_a_at) / RFU SYPL1 (11715823_x_at) / Fold change /veh SYPL1 (11715823_x_at) / RFU IGFBP7 (11715501_s_at) / Fold change /veh IGFBP7 (11715501_s_at) / RFU REEP3 (11722064_at) / Fold change /veh REEP3 (11722064_at) / RFU IGLL1 (11728026_x_at) / Fold change /veh IGLL1 (11728026_x_at): dose or concentration left out as unconfirmed
Conditions: ProbeSet 11758440_s_at; LIST B

## Nc1ccc(-c2cccs2)cc1NC(=O)c1ccc2c(c1)cc(C1CC1)n2CCN1CCOCC1 [ACY-1035]
  Fold change vs veh, RFX7: 0.90
